Measurements reported in PubChem BioAssay (NCI).
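Compound exposure: 48 hours, 5 concentrations, 96-well plates. The concentration for full growth arrest is given as TGI.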 *1 amine or outer side, *2 acyl side, *3 side chain or, on linkers, in order; H or OH if unused. Where a SMILES comes first, the peptide text is derived from it. Bridges are numbered along the chain shown (N, C = ends). [ ]: non-standard residue; d: D form. The star is where a group is joined. X34 = O=C(C(CCCCNO[*:3])N[*:1])[*:2]; Fmoc = O=C(OCC1c2ccccc2-c2ccccc21)*

Columns and labels:
Test in all cases: NCI anticancer screen, dose series, 48 h
[1] = tested on: HCT-116 colon
[2] = tested on: T-47D breast
[3] = tested on: A549 NSCLC
[4] = tested on: SK-MEL-5 melanoma
[5] = tested on: M19-MEL melanoma
[6] = tested on: DMS 273 small cell lung
[7] = tested on: DLD-1 colon
[8] = tested on: KM20L2 colon
[9] = tested on: SNB-78 CNS
[10] = tested on: XF 498 CNS
[11] = tested on: DMS 114 small cell lung
[12] = tested on: LXFL 529 NSCLC

SMILES	TGI [1]	TGI [2]	TGI [3]	TGI [4]	also measured
NC(=O)CNC(=O)C1CCCN1C(=O)C1CCCCNOC(=O)CCC(NC(=O)OCC2c3ccccc3-c3ccccc32)C(=O)NC(Cc2c[nH]c3ccccc23)C(=O)N1 (stereo not drawn) (Fmoc-EW[X34]PG-NH2; ester 1-3; configuration not given here)	> 100 µM	> 100 µM	> 100 µM	> 100 µM	–
CN(C)CCNC(=O)Cn1cnc2cccc([N+](=O)[O-])c2c1=O	> 100 µM	> 100 µM	> 100 µM	> 100 µM	–
CC(=O)OCC(C)(COC(C)=O)N1C(=O)C2C3c4ccccc4C(c4ccccc43)C2C1=O (stereo not drawn)	> 100 µM	> 100 µM	> 100 µM	> 100 µM	–
COC1(OC)C=CC2C1C1C=CC2C1(OC)OC (stereo not drawn)	> 100 µM	> 100 µM	> 100 µM	> 100 µM	–
CCOc1ccccc1-c1nc2c(s1)C(=O)c1ccccc1C2=O	29.3 µM	63.9 µM	36.9 µM	18.7 µM	–
COc1cccc(Nc2nc(N)nc(N)c2N)c1	53.8 µM	> 100 µM	> 100 µM	88.2 µM	–
CCN(CC)Cc1ccc(C(=S)Nc2ccc(C)cc2)s1	28.7 µM	37.4 µM	36.1 µM	26.5 µM	–
CC(=O)c1ccc2c(c1)CC1(C2)Cc2ccc3c(c2C1=O)CCC3 (stereo not drawn)	> 100 µM	94.5 µM	> 100 µM	28.4 µM	–
C=C1C(=O)OC2C3C(=C)[C@@H](OC(C)=O)CC3C(C)=CC(OC(=O)C(C)(OC(C)=O)C(C)OC(C)=O)[C@@H]12 (stereo partly drawn)	23.8 µM	40.5 µM	70.4 µM	25.3 µM	–
CCS(=O)(=O)CCn1c(=O)c2c(ncn2C)n(C)c1=O	> 100 µM	> 100 µM	> 100 µM	> 100 µM	–
NC(=O)SCCC(N)C(=O)O (stereo not drawn)	> 100 µM	> 100 µM	> 100 µM	> 100 µM	–
ON[C@H]1C[C@@H](n2cnc3c(NC4CC4)ncnc32)[C@H](O)[C@@H]1O	> 100 µM	> 100 µM	> 100 µM	> 100 µM	–
O/N=C1/CC2(N3CCOCC3)C3CC/C(=N\O)C2CC1(Cc1ccccc1)C3 (stereo not drawn)	> 100 µM	> 100 µM	> 100 µM	> 100 µM	–
CC1=NN(c2nc(N)nc(C/C(N)=N/O)n2)C(C)(C)C1	> 100 µM	–	> 100 µM	> 100 µM	–
COc1cc(/C=C\c2nnc(/C=C\c3ccc(O)c(OC)c3)s2)ccc1O	14 µM	7.38 µM	> 54.7 µM	3.42 µM	–
CN(C)c1ccc(C2CC(c3ccc4ccccc4c3O)=NN2c2ccc([N+](=O)[O-])cc2[N+](=O)[O-])cc1 (stereo not drawn)	> 100 µM	> 100 µM	> 100 µM	–	–
CCN(CC)C(=S)SC(C(=O)Nc1nnc(-c2ccccc2)o1)c1ccccc1 (stereo not drawn)	34.7 µM	> 100 µM	35.7 µM	28.8 µM	–
COC(=O)C(COC(=O)/C=C/c1ccc(OC(C)=O)c(OC(C)=O)c1)NC(=O)/C=C/c1ccc(OC(C)=O)c(OC(C)=O)c1 (stereo not drawn)	42.6 µM	38.8 µM	> 100 µM	29.7 µM	–

SMILES	TGI [1]	TGI [2]	TGI [3]	TGI [4]	also measured
O=c1cc(N=Nc2ccc(Cl)c(Cl)c2)[nH]c(=O)[nH]1	3.21 µM	–	42.3 µM	10.2 µM	–
CC(C)C[C@H](NC(=O)[C@H](Cc1ccc(F)cc1)NC(=O)c1ccccn1)B(O)O	< 0.01 µM	< 0.01 µM	0.165 µM	< 0.01 µM	–
C=CCN1/C(=C2\SC(=S)N(c3ccc(C)cc3)C2=O)Sc2c1nc[nH]c2=O	> 100 µM	–	> 100 µM	> 100 µM	TGI [5]: > 100 µM; TGI [6]: > 100 µM; TGI [7]: > 100 µM; TGI [8]: > 100 µM; TGI [9]: > 100 µM; TGI [10]: > 100 µM; TGI [11]: > 100 µM; TGI [12]: > 100 µM
Nc1ccc(C23CC4CC(C2)CC(c2ccc(N)cc2)(C4)C3)cc1	> 100 µM	–	> 100 µM	26.9 µM	–
Cn1c2ccccc2c(=O)c2cccc(C(=O)NCC(=O)O)c21	> 100 µM	> 100 µM	> 100 µM	> 100 µM	–
CCN(CCCl)c1cc(CN(C)C)cc(NC(=O)C23CCC(C(=O)Nc4cc(CN(C)C)cc(N(CC)CCCl)c4)(CC2)CC3)c1	5.33 µM	19.2 µM	5.14 µM	3.33 µM	–
OC(c1ccc2c(c1)OCO2)c1ccc2c(c1)OCO2	> 100 µM	> 100 µM	> 100 µM	> 100 µM	–
CN(C(=O)C1=CCC2(CC1)OCCO2)c1ccccc1I	> 100 µM	> 100 µM	> 100 µM	> 100 µM	–
O=C(NC(Cc1cnc[nH]1)C(=O)N1CCCC1)C1CCCC1 (stereo not drawn)	> 100 µM	–	> 100 µM	> 100 µM	–
O=C1c2c(ccc3c2CCC3)CC12Cc1ccccc1C2	19.6 µM	> 100 µM	> 100 µM	24.3 µM	–
COc1nc2c(c(=O)n1C)N=C(c1ccccc1)[C@H](C(CC(=O)c1ccccc1)c1ccccc1)C(c1ccccc1)N2 (stereo partly drawn)	> 100 µM	–	> 100 µM	> 100 µM	–
O=C1OC(C2(O)OC(=O)c3ccccc32)c2ccccc21 (stereo not drawn)	> 100 µM	> 100 µM	> 100 µM	> 100 µM	–
COc1ccc(C2=C(N)c3ncccc3C2=O)cc1	> 100 µM	> 100 µM	–	–	–
COc1cc2c(cc1O)C1(Cc3ccc4c(c3C1=O)OCO4)N(C)CC2 (stereo not drawn)	> 100 µM	> 100 µM	> 100 µM	> 100 µM	–
CCOC(=O)c1cc(Br)c(-c2cc(C)no2)[nH]1	> 100 µM	> 100 µM	> 100 µM	47.5 µM	–
CN1C(=O)C(O)CC1c1ccccc1C(F)(F)F (stereo not drawn)	> 100 µM	–	> 100 µM	> 100 µM	–
N=CN=CC(=S)O[C@@H]1C(=O)N2CCC[C@@]23CCCC[C@@H]13	> 12.5 µM	> 12.5 µM	> 12.5 µM	> 12.5 µM	–
